Assays:
[1] = xn = mol fraction of the nth substance listed; details: 101 kPa, Liquid
[2] = 101 kPa, Liquid

CN1CCNCC1 [N-methylpiperazine] + CCCCCCC
[1]
Details | mass density, 298.15 K [kg/m3] | mass density, 303.15 K [kg/m3] | mass density, 313.15 K [kg/m3] | viscosity, 298.15 K [mPa·s] | viscosity, 303.15 K [mPa·s] | viscosity, 313.15 K [mPa·s]
x1 = 0.1006 | 695.86 | 691.57 | 682.9 | 0.429 | 0.395 | 0.36
x1 = 0.2012 | 713.24 | 708.91 | 700.2 | 0.466 | 0.438 | 0.389
x1 = 0.3006 | 731.62 | 727.27 | 718.49 | 0.511 | 0.481 | 0.424
x1 = 0.4014 | 751.5 | 747.13 | 738.3 | 0.571 | 0.533 | 0.467
x1 = 0.5007 | 772.43 | 768.04 | 759.18 | 0.648 | 0.599 | 0.527
x1 = 0.5996 | 794.38 | 789.99 | 781.1 | 0.756 | 0.699 | 0.603
x1 = 0.7 | 818.02 | 813.61 | 804.71 | 0.905 | 0.815 | 0.691
x1 = 0.7979 | 842.73 | 838.32 | 829.43 | 1.094 | 0.995 | 0.826
x1 = 0.9036 | 871.01 | 866.62 | 857.75 | 1.474 | 1.234 | 1.024
x1 = 1 | 899.28 | 894.9 | 886.07 | 1.856 | 1.544 | 1.25

CCCCCCC [heptane]
[2]
Details | mass density [kg/m3] | viscosity [mPa·s]
298.15 K | 679.72 | 0.404
303.15 K | 675.46 | 0.383
313.15 K | 666.84 | 0.342

CCCCCCC [heptane] + CN1CCNCC1
[1], x2 = 0
Details | mass density [kg/m3] | viscosity [mPa·s]
298.15 K | 679.72 | 0.404
303.15 K | 675.46 | 0.383
313.15 K | 666.84 | 0.342

CC1CCCCC1 [methylcyclohexane]
[2]
Details | mass density [kg/m3] | viscosity [mPa·s]
298.15 K | 765 | 0.719
303.15 K | 760.67 | 0.655
313.15 K | 751.94 | 0.573

CC1CCCCC1 [methylcyclohexane] + CN1CCNCC1
[1], x2 = 0
Details | mass density [kg/m3] | viscosity [mPa·s]
298.15 K | 765 | 0.719
303.15 K | 760.67 | 0.655
313.15 K | 751.94 | 0.573
